The source of these data is US20150297482A1, “MALODOR COUNTERACTING COMPOSITIONS AND METHOD FOR THEIR USE TO COUNTERACT SWEAT MALODOR” (FIRMENICH SA, priority 2009, published 2015).

Where two headings read alike, the source gives them in different places.

The subject of the experiment is Staphylococcus haemolyticus CNCM I-4170. Nature of the experiment: Protocol A: in-vitro malodor inhibition (free thiol groups from Cys-Gly precursor, DTNB absorbance at 412 nm). The note with it: for inhibition at 0.005 %: 0.005 w/v % in medium. It is filed as cell-based. An excerpt:
Further details of such a screening and % inhibition measurement and definition are described further on in this application. The precursor used, which may also be in the form of a human sweat sample, typically generates malodorant sulfur compounds when acted upon by the Staphylococcus haemolyticus cells, or by a β-lyase present in such cells. The malodor inhibition coefficient, as defined herein, reflects the % of reduction in free SH groups generated in the above-mentioned medium by the enzymatic activity of the bacterial cells when in presence of the MOC ingredient or MOC composition in question, as compared to the same measurement in their absence. […] Alternatively, the bacterial cells can be replaced by a β-lyase present in said cells. […] Detection of enzymatic activity inhibition is measured via the sulfur groups, namely thiol groups, freed from the precursor bacterial transformation, by comparison with the reference experiment in the absence of the respective MOC ingredient, said sulfur groups being detected by interaction with DTNB, a known chemical detector system for thiols. The reaction can be monitored by absorbance reading at 412 nm. The procedure can be performed indifferently with either a purified or semi-purified enzyme or intact bacterial cells, as in the case described here. Malodor inhibition coefficient is measured as a function of the percentage of free thiol groups in the medium, over time, by an absorbance method, and reflects the reduction in malodor obtained in the presence of the MOC ingredients and compositions. […] At the end of the growth phase, the bacterial cells were harvested by centrifugation at 5000 rpm for 15 min. The cell pellet was then washed with 0.1 volumes of sterile potassium phosphate buffer 0.1 M, pH 7.5. […] The precursor was used at 0.17 mM final concentration. • Detection reagent DTNB • DTNB (5,5′-Dithio-bis-(2-nitrobenzoic acid; […]

Where [1] appears, read: Staphylococcus haemolyticus, CNCMI4170, Table 2, 0.0012 w/v % in medium, read-out: Ingredient Malodor Inhibition Value (%).
The mark [2] stands for this setting: Staphylococcus haemolyticus, CNCMI4170, Table 2, 0.0025 w/v % in medium, read-out: Ingredient Malodor Inhibition Value (%).
Setting [3] is: Staphylococcus haemolyticus, CNCMI4170, Table 2, read-out: Ingredient Malodor Inhibition Value (%).
Setting [4] is: Staphylococcus haemolyticus, CNCMI4170, Table 2, 0.0125 w/v % in medium, read-out: Ingredient Malodor Inhibition Value (%).
The mark [5] stands for this setting: Staphylococcus haemolyticus, CNCMI4170, Table 2, 0.025 w/v % in medium, read-out: Ingredient Malodor Inhibition Value (%).
Setting [6] is: Staphylococcus haemolyticus, CNCMI4170, 0.0012 w/v % in medium, read-out: Ingredient Malodor Inhibition Value (%).
Setting [7] is: Staphylococcus haemolyticus, CNCMI4170, 0.0025 w/v % in medium, read-out: Ingredient Malodor Inhibition Value (%).
Setting [8] is: Staphylococcus haemolyticus, CNCMI4170, 0.006 w/v % in medium, read-out: Ingredient Malodor Inhibition Value (%).
Where [9] appears, read: Staphylococcus haemolyticus, CNCMI4170, 0.0125 w/v % in medium, read-out: Ingredient Malodor Inhibition Value (%).
Setting [10] is: Staphylococcus haemolyticus, CNCMI4170, 0.025 w/v % in medium, read-out: Ingredient Malodor Inhibition Value (%).
Where [11] appears, read: Staphylococcus haemolyticus, CNCMI4170, 0.1 w/v % in medium, read-out: Ingredient Malodor Inhibition Value (%).

`c1nc2c(o1)CCCCCCCCCC2` [4,5,6,7,8,9,10,11,12,13-Decahydrocyclododeca-1,3-oxazole]: the inhibition at 0.0012 % under setting [1] was determined as 0%. For the same compound, under setting [2], the inhibition at 0.0025 % is 0%. The inhibition at 0.005 % under setting [3] stood at 52.2%.

Regarding `CC=CCCCCCCCC=O` [9-Undecenal], under setting [1], the inhibition at 0.0012 % was determined as 0%. In addition, the inhibition at 0.0025 % under setting [2] was 0%. Besides, the inhibition at 0.005 % under setting [3] was determined as 62.4%. In addition, the inhibition at 0.0125 % under setting [4] came to 89%. Besides, the inhibition at 0.025 % under setting [5] is 81.8%. For the setting “Staphylococcus haemolyticus, CNCMI4170, Table 2, 0.05 w/v % in medium, read-out: Ingredient Malodor Inhibition Value (%)”, the inhibition at 0.05 % turned out to be 77.9%.

On to Terpenyl acetate, for which the “Ingredient Malodor Inhibition Value (%)” value by setting is: (0.0012 w/v % in medium) 0.00%; (0.0025 w/v % in medium) 0.00%; (0.006 w/v % in medium) 0.00%; (0.0125 w/v % in medium) 0.00%; (0.025 w/v % in medium) 0.00%; (0.05 w/v % in medium) 6.81%. For the same compound, the “Ingredient Malodor Inhibition Value (%)” value (0.1 w/v % in medium) is reported as 00.00%.

In the case of `CC(C)(O)CCC1CCCCC1` [Coranol ®, 4-cyclohexyl-2-methyl-2-butanol], the inhibition at 0.0012 % under setting [6] was 0%. Under setting [7], the inhibition at 0.0025 % turned out to be 0%. Further, the inhibition at 0.006 % under setting [8] amounted to 10.8%. Besides, the inhibition at 0.0125 % under setting [9] was 49.8%. Besides, the inhibition at 0.025 % under setting [10] was determined as 77.7%. Also, the inhibition at 0.1 % under setting [11] came out at 77.8%.

In the case of `C=CCCCCCCCCC=O` [10-Undecenal], the inhibition at 0.0012 % under setting [1] came out at 3%. Also, the inhibition at 0.005 % under setting [3] was found to be 49.2%.

`CCCCCCCCC/C=C/C=O` [(E)-2-Dodecenal]: the inhibition at 0.0006 % (Staphylococcus haemolyticus, CNCMI4170, Table 2, 0.0006 w/v % in medium, read-out: Ingredient Malodor Inhibition Value (%)) was 10.4%. Further, under setting [1], the inhibition at 0.0012 % stood at 29.7%. For the same compound, under setting [2], the inhibition at 0.0025 % amounted to 55.4%. Under setting [3], the inhibition at 0.005 % came to 86.9%. Moreover, the inhibition at 0.0125 % under setting [4] stood at 94%.

For `CCCCC/C=C/CCC=O` [(E)-4-Decenal], the inhibition at 0.0012 % under setting [1] is 22%. Moreover, the inhibition at 0.0025 % under setting [2] is 28.2%. Besides, under setting [3], the inhibition at 0.005 % was 66.6%. For the same compound, the inhibition at 0.0125 % under setting [4] was found to be 90.1%. In addition, under setting [5], the inhibition at 0.025 % turned out to be 100%.

`CC(CCO)CC(C)(C)C` (centres unmarked) [3,5,5-Trimethyl-1-hexanol]: the inhibition at 0.0012 % under setting [6] turned out to be 0%. The inhibition at 0.0025 % under setting [7] was 0%. For the same compound, the inhibition at 0.006 % under setting [8] stood at 0%. For the same compound, the inhibition at 0.0125 % under setting [9] came out at 0%. Moreover, the inhibition at 0.025 % under setting [10] was found to be 35%. Further, the inhibition at 0.05 % (Staphylococcus haemolyticus, CNCMI4170, 0.05 w/v % in medium, read-out: Ingredient Malodor Inhibition Value (%)) worked out at 58.3%. Moreover, under setting [11], the inhibition at 0.1 % is 62.9%.
